Data on 10 compounds can be found in PubChem BioAssay (NCI).

Test systems include CAKI-1 renal; CCRF-CEM leukemia; DU-145 prostate; HCC-2998 colon; HCT-116 colon; HL-60(TB) leukemia; HOP-92 NSCLC; HS 578T breast; HT29 colon; LOX IMVI melanoma; MALME-3M melanoma; MCF7 breast; MOLT-4 leukemia; NCI-H226 lung; NCI-H522 lung; NCI/ADR-RES ovarian; OVCAR-3 ovarian; PC-3 prostate; T-47D breast; TK-10 renal.
Common to all, as to assay: growth of human tumour cells (NCI), 48 h

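Values below derive from 48-hour exposures of cells grown in 96-well plates, with endpoints linearly interpolated between the two concentrations bracketing the appropriate inhibition level. The concentration for full growth arrest is given as TGI.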

As for `O=C1CSC(c2ccccc2O)N1c1ccc(-n2c(-c3ccccc3)nc3ccccc3c2=O)cc1` (stereo not given), the TGI is > 100 µM in the test with CAKI-1 renal; > 100 µM in the test with CCRF-CEM leukemia; > 100 µM in the test with DU-145 prostate; > 100 µM in the test with HCC-2998 colon; 35.9 µM in the test on HCT-116 colon; > 100 µM with HL-60(TB) leukemia. Further, the TGI in the test on HOP-92 NSCLC is 76.5 µM; with HS 578T breast, > 100 µM; with HT29 colon, > 100 µM; in the test on LOX IMVI melanoma, 69 µM; with MALME-3M melanoma, 74.6 µM; in the test on MCF7 breast it was > 100 µM. Moreover, the TGI is > 100 µM in the test on MOLT-4 leukemia; 97.5 µM in the test on NCI-H226 lung; 66 µM with NCI-H522 lung; 72.6 µM in the test on NCI/ADR-RES ovarian; 41.5 µM with OVCAR-3 ovarian; 58.7 µM in the test on PC-3 prostate. In addition, the TGI with T-47D breast is 65.8 µM; in the test on TK-10 renal, > 100 µM.
`CCOC(=O)C(=CNc1ccc(F)c(F)c1)C(=O)OCC`: the TGI in the test on CAKI-1 renal, with CCRF-CEM leukemia, in the test with DU-145 prostate, in the test on HCC-2998 colon, in the test on HCT-116 colon and with HL-60(TB) leukemia was > 100 µM throughout. For the same compound, the TGI in the test on HOP-92 NSCLC, in the test with HS 578T breast, in the test with HT29 colon, with LOX IMVI melanoma, in the test with MALME-3M melanoma and with MCF7 breast was > 100 µM each time. The TGI in the test on MOLT-4 leukemia, in the test on NCI-H226 lung, with NCI-H522 lung, in the test with NCI/ADR-RES ovarian, in the test with OVCAR-3 ovarian and in the test on PC-3 prostate was > 100 µM throughout. In addition, the TGI in the test with T-47D breast and in the test on TK-10 renal was > 100 µM throughout.
Consider `O=C1NC2(CCNCC2)Oc2ccccc21`, for which the TGI in the test with CAKI-1 renal, in the test with CCRF-CEM leukemia, with DU-145 prostate, in the test on HCC-2998 colon, in the test with HCT-116 colon and with HL-60(TB) leukemia was > 100 µM each time. Besides, the TGI in the test on HOP-92 NSCLC, in the test with HS 578T breast, in the test with HT29 colon, in the test on LOX IMVI melanoma, in the test on MALME-3M melanoma and with MCF7 breast was > 100 µM throughout. Moreover, the TGI in the test on MOLT-4 leukemia, in the test with NCI-H226 lung, with NCI-H522 lung, with NCI/ADR-RES ovarian, with OVCAR-3 ovarian and with PC-3 prostate was > 100 µM in each case. Further, the TGI with T-47D breast and in the test with TK-10 renal was > 100 µM throughout.
Take `O=[N+]([O-])/C(Cl)=C(/C(Cl)=C(Cl)Cl)N1CCOCC1`: the TGI in the test with CAKI-1 renal is 12.7 µM; in the test on CCRF-CEM leukemia, 7.23 µM; in the test on DU-145 prostate, 26.9 µM; in the test with HCC-2998 colon it was 7.52 µM; with HCT-116 colon, 7.51 µM; in the test on HL-60(TB) leukemia it was 5.23 µM. In addition, the TGI in the test with HOP-92 NSCLC amounted to 4.88 µM; in the test with HS 578T breast, 14.9 µM; with HT29 colon, 14.2 µM; with LOX IMVI melanoma, 17.3 µM; with MALME-3M melanoma it was 3.07 µM; with MCF7 breast, 8.25 µM. Further, the TGI is 7.32 µM with MOLT-4 leukemia; 40.4 µM in the test with NCI-H226 lung; 4.73 µM in the test with NCI-H522 lung; 14.9 µM in the test with NCI/ADR-RES ovarian; 4.86 µM with OVCAR-3 ovarian; 19.3 µM in the test with PC-3 prostate. Besides, the TGI turned out to be 9.36 µM in the test with T-47D breast and 13.6 µM in the test with TK-10 renal.
Consider `COC(=O)C(=O)Nc1cc2c3c(c1)Oc1cccc4c1C3(C)c1c(cccc1O2)O4`, for which the TGI with CAKI-1 renal is > 100 µM; in the test with CCRF-CEM leukemia, 8.7 µM; in the test on DU-145 prostate, > 66.3 µM; in the test on HCC-2998 colon it was > 100 µM; with HCT-116 colon, > 100 µM; in the test with HL-60(TB) leukemia, 14.2 µM. The TGI is > 100 µM with HOP-92 NSCLC; > 100 µM with HS 578T breast; > 40.6 µM in the test with HT29 colon; > 100 µM in the test on LOX IMVI melanoma; > 100 µM with MALME-3M melanoma; > 100 µM in the test on MCF7 breast. Further, the TGI with MOLT-4 leukemia is > 100 µM; in the test with NCI-H226 lung it was 44.8 µM; in the test with NCI-H522 lung it was > 100 µM; in the test on NCI/ADR-RES ovarian it was > 100 µM; in the test with OVCAR-3 ovarian, > 100 µM; with PC-3 prostate, > 100 µM. The TGI with T-47D breast and in the test with TK-10 renal was > 100 µM throughout.
For `CN=c1sc2nc(C#N)c(C#N)nc2n1C`, the TGI in the test on CAKI-1 renal was 60.3 µM; in the test with CCRF-CEM leukemia, > 100 µM; in the test with DU-145 prostate, > 85.4 µM; with HCC-2998 colon it was 55.8 µM; in the test with HCT-116 colon it was 36 µM; in the test on HL-60(TB) leukemia it was > 40.4 µM. Also, the TGI with HOP-92 NSCLC was 37.7 µM; in the test with HS 578T breast, > 100 µM; in the test on HT29 colon, 26 µM; with LOX IMVI melanoma it was 46.5 µM; in the test on MALME-3M melanoma, 36.4 µM; with MCF7 breast it was 38.1 µM. Also, the TGI was > 100 µM with MOLT-4 leukemia; 38.8 µM in the test with NCI-H226 lung; 31.5 µM with NCI-H522 lung; 59.1 µM in the test with NCI/ADR-RES ovarian; 72.1 µM in the test on OVCAR-3 ovarian; > 100 µM in the test with PC-3 prostate. For the same compound, the TGI in the test on T-47D breast was > 91.7 µM; with TK-10 renal, > 63.4 µM.
For the compound `COc1ccc2nc3ccc(OC)cc3c(SCCCl)c2c1`, the TGI was 66.8 µM with CAKI-1 renal; 16 µM in the test on CCRF-CEM leukemia; > 65 µM with DU-145 prostate; > 100 µM in the test with HCC-2998 colon; > 43.5 µM in the test with HCT-116 colon; > 21.1 µM in the test on HL-60(TB) leukemia. Also, the TGI with HOP-92 NSCLC was > 42.2 µM; with HS 578T breast it was > 100 µM; in the test with HT29 colon it was > 52.4 µM; in the test on LOX IMVI melanoma, 21.3 µM; with MALME-3M melanoma, > 100 µM; in the test on MCF7 breast, > 47 µM. For the same compound, the TGI with MOLT-4 leukemia was 16.4 µM; in the test on NCI-H226 lung it was > 100 µM; in the test with NCI-H522 lung it was > 100 µM; in the test with NCI/ADR-RES ovarian, > 58.7 µM; in the test on OVCAR-3 ovarian it was > 100 µM; with PC-3 prostate it was > 100 µM. The TGI was > 97.2 µM in the test with T-47D breast and > 100 µM with TK-10 renal.
Consider `CC(C)(C)OC(=O)CCCCCNC(=O)CCCCCNC(=O)CCC(CN(CC(=O)OCc1ccccc1)CC(=O)OCc1ccccc1)N(CC(=O)OCc1ccccc1)CC(=O)OCc1ccccc1` (stereo not given), for which the TGI with CAKI-1 renal, in the test on CCRF-CEM leukemia, with DU-145 prostate, in the test with HCC-2998 colon, in the test with HCT-116 colon and with HL-60(TB) leukemia was > 100 µM throughout. Besides, the TGI in the test on HOP-92 NSCLC, with HS 578T breast, in the test with HT29 colon, in the test on LOX IMVI melanoma, in the test with MALME-3M melanoma and in the test with MCF7 breast was > 100 µM throughout. The TGI in the test with MOLT-4 leukemia, in the test on NCI-H226 lung, with NCI-H522 lung, in the test with NCI/ADR-RES ovarian, in the test on OVCAR-3 ovarian and in the test with PC-3 prostate was > 100 µM each time. Besides, the TGI in the test with T-47D breast and in the test on TK-10 renal was > 100 µM in each case.
`O=[N+]([O-])c1cccc2nccc(NCCN3CCOCC3)c12`: the TGI in the test on CAKI-1 renal was 20.2 µM; in the test on CCRF-CEM leukemia, > 64.8 µM; in the test with DU-145 prostate, > 100 µM; in the test on HCC-2998 colon, 26.4 µM; with HCT-116 colon, 30.5 µM; with HL-60(TB) leukemia, > 34.6 µM. The TGI with HOP-92 NSCLC is > 100 µM; with HS 578T breast it was 57.6 µM; in the test on HT29 colon it was 44.4 µM; in the test on LOX IMVI melanoma, 46.6 µM; in the test with MALME-3M melanoma it was 18.7 µM; with MCF7 breast, 25.5 µM. The TGI is > 56.5 µM in the test with MOLT-4 leukemia; 17 µM with NCI-H226 lung; 22 µM in the test on NCI-H522 lung; > 100 µM with NCI/ADR-RES ovarian; 25.2 µM in the test with OVCAR-3 ovarian; 39.1 µM in the test with PC-3 prostate. In addition, the values for the TGI with T-47D breast and in the test on TK-10 renal were > 100 µM and > 48.4 µM, respectively.
As to `Cc1ccc(C(=O)Oc2ccccc2)cc1N=NN(C)C`, the TGI in the test with CAKI-1 renal, with CCRF-CEM leukemia, with DU-145 prostate, in the test with HCC-2998 colon, in the test on HCT-116 colon and in the test with HL-60(TB) leukemia was > 100 µM each time. Also, the TGI with HOP-92 NSCLC, in the test on HS 578T breast, in the test with HT29 colon, in the test on LOX IMVI melanoma, in the test with MALME-3M melanoma and in the test on MCF7 breast was > 100 µM throughout. In addition, the TGI in the test on MOLT-4 leukemia, in the test with NCI-H226 lung, in the test with NCI-H522 lung, with NCI/ADR-RES ovarian, in the test with OVCAR-3 ovarian and in the test on PC-3 prostate was > 100 µM each time. Besides, the TGI in the test on T-47D breast and in the test on TK-10 renal was > 100 µM throughout.
